Reference: PubChem BioAssay AID248 (DTP/NCI, 2004)
Inconclusive results and toxic doses are left out. Cut-off read from the data, not from the text of the source: active = T/C of 150% or more; inactive = T/C below 125%.

System: L1210 leukemia ip in BDF1 mice, survival T/C
Assay: NCI In Vivo Anticancer Drug Screen. Data for tumor model L1210 Leukemia (intraperitoneal) in B6D2F1 (BDF1) mice
Conditions: endpoint: mean survival time, higher = longer survival
In short: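 Survival endpoint. Drug-treated group vs vehicle group, expressed as T divided by C. Tumor passaged by transplantation.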

[1] = dose: 100.0 mg/kg/injection, schedule: Q04DX002 (ip), vehicle: other
[2] = dose: 200.0 mg/kg/injection, schedule: Q04DX002 (ip), vehicle: other
[3] = dose: 400.0 mg/kg/injection, schedule: Q04DX002 (ip), vehicle: other
[4] = dose: 100.0 mg/kg/injection, schedule: Q01DX001 (ip), vehicle: carboxymethylcellulose (CMC)
[5] = dose: 200.0 mg/kg/injection, schedule: Q01DX001 (ip), vehicle: carboxymethylcellulose (CMC)
[6] = dose: 400.0 mg/kg/injection, schedule: Q01DX001 (ip), vehicle: carboxymethylcellulose (CMC)
[7] = dose: 100.0 mg/kg/injection, schedule: Q01DX001 (ip), vehicle: saline
[8] = dose: 400.0 mg/kg/injection, schedule: Q01DX001 (ip), vehicle: saline
[9] = dose: 100.0 mg/kg/injection, schedule: Q01DX009 (ip), vehicle: saline with Tween-80
[10] = dose: 100.0 mg/kg/injection, schedule: Q04DX003 (ip), vehicle: saline with Tween-80
[11] = dose: 200.0 mg/kg/injection, schedule: Q01DX009 (ip), vehicle: saline with Tween-80
[12] = dose: 200.0 mg/kg/injection, schedule: Q04DX003 (ip), vehicle: saline with Tween-80
[13] = dose: 400.0 mg/kg/injection, schedule: Q01DX009 (ip), vehicle: saline with Tween-80
[14] = dose: 400.0 mg/kg/injection, schedule: Q04DX003 (ip), vehicle: saline with Tween-80

Measured: T/C

CCCCCCCCCC(=O)Nc1ccccc1CC
inactive: [1] 116 % of control | [2] 105 % of control | [3] 101 % of control

CC(C)(CO)N=Cc1ccc(O)cc1O
inactive: [4] 96 % of control | [5] 93 % of control | [6] 91 % of control

CC1CCC(=O)OCCCC(=O)C1 (configuration not stated)
inactive: [7] 93 % of control | [8] 95 % of control

CC1Cc2ccccc2C2=C3CC=CCC3C3C(=O)OC(=O)C3C21 (configuration not stated)
inactive: dose: 75.0 mg/kg/injection, schedule: Q01DX001 (ip), vehicle: carboxymethylcellulose (CMC) 89 % of control | dose: 150.0 mg/kg/injection, schedule: Q01DX001 (ip), vehicle: carboxymethylcellulose (CMC) 94 % of control | dose: 300.0 mg/kg/injection, schedule: Q01DX001 (ip), vehicle: carboxymethylcellulose (CMC) 90 % of control

COc1cccc(C=O)c1[N+](=O)[O-]
inactive: dose: 100.0 mg/kg/injection, schedule: Q04DX002 (ip), vehicle: Klucel (hydroxypropylcellulose) (HPC) 104 % of control | dose: 200.0 mg/kg/injection, schedule: Q04DX002 (ip), vehicle: Klucel (hydroxypropylcellulose) (HPC) 108 % of control | dose: 400.0 mg/kg/injection, schedule: Q04DX002 (ip), vehicle: Klucel (hydroxypropylcellulose) (HPC) 97 % of control

CCO/C=C/C(=O)NC(=O)OCC
inactive: [9] 95 % of control | [10] 97 % of control | [11] 91 % of control | [12] 100 % of control | [13] 101 % of control | [14] 94 % of control

COC(=O)N(C1CCCCC1)C1CCCCC1
inactive: dose: 100.0 mg/kg/injection, schedule: Q01DX009 (ip), vehicle: Klucel (hydroxypropylcellulose) (HPC) 97 % of control | dose: 200.0 mg/kg/injection, schedule: Q01DX009 (ip), vehicle: Klucel (hydroxypropylcellulose) (HPC) 96 % of control | dose: 400.0 mg/kg/injection, schedule: Q01DX009 (ip), vehicle: Klucel (hydroxypropylcellulose) (HPC) 100 % of control

Cc1cc(CC(=S)[S-])[n+](C)c(CC(=S)S)c1
inactive: dose: 87.5 mg/kg/injection, schedule: Q01DX009 (ip), vehicle: Klucel (hydroxypropylcellulose) (HPC) 105 % of control | dose: 175.0 mg/kg/injection, schedule: Q01DX009 (ip), vehicle: Klucel (hydroxypropylcellulose) (HPC) 101 % of control

O=[N+]([O-])C1CC(O)CCC1SSC1CCC(O)CC1[N+](=O)[O-] (configuration not stated)
inactive: [1] 106 % of control | [2] 103 % of control | [3] 98 % of control

CCCCCCCCCCCCCS
inactive: dose: 40.0 mg/kg/injection, schedule: Q01DX Z (ip), vehicle: saline 108 % of control | dose: 50.0 mg/kg/injection, schedule: Q04DX003 (ip), vehicle: carboxymethylcellulose (CMC) 100 % of control | dose: 60.0 mg/kg/injection, schedule: Q01DX Z (ip), vehicle: saline 120 % of control | dose: 90.0 mg/kg/injection, schedule: Q01DX Z (ip), vehicle: saline 111 % of control | [4] 110 % of control | dose: 100.0 mg/kg/injection, schedule: Q04DX003 (ip), vehicle: carboxymethylcellulose (CMC) 105 % of control | dose: 135.0 mg/kg/injection, schedule: Q01DX Z (ip), vehicle: saline 120 % of control | [5] 101 % of control | dose: 200.0 mg/kg/injection, schedule: Q01DX Z (ip), vehicle: saline 108 % of control | dose: 200.0 mg/kg/injection, schedule: Q04DX003 (ip), vehicle: carboxymethylcellulose (CMC) 100 % of control | dose: 202.5 mg/kg/injection, schedule: Q01DX Z (ip), vehicle: saline 117 % of control | [6] 116 % of control | dose: 450.0 mg/kg/injection, schedule: Q01DX Z (ip), vehicle: saline 108 % of control | dose: 675.0 mg/kg/injection, schedule: Q01DX Z (ip), vehicle: saline 90 % of control

Cc1ccc(NS(=O)(=O)c2ccc([N+](=O)[O-])cc2)c(C)c1
inactive: [9] 98 % of control | [10] 88 % of control | [11] 101 % of control | [12] 89 % of control | [13] 98 % of control | [14] 86 % of control

CCCCCCOc1ccc(/C=N\N=C\c2ccc(OCCCCCC)cc2)cc1
inactive: [9] 92 % of control | [11] 89 % of control | [13] 91 % of control

Cc1cc2c(cc1C)C(=O)C(=O)N2
inactive: dose: 50.0 mg/kg/injection, schedule: Q01DX001 (ip), vehicle: saline 98 % of control | [7] 107 % of control | dose: 200.0 mg/kg/injection, schedule: Q01DX001 (ip), vehicle: saline 104 % of control | [8] 98 % of control

CN1CCN(Cc2c(O)ccc3c4c(c(=O)oc23)CCCC4)CC1
inactive: [4] 98 % of control | [5] 93 % of control
